Assay results from ChEMBL document CHEMBL1201862, “PubChem BioAssay data set” (2004).
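Protocol summary: plate cells (96-well), add compound at 5 concentrations, incubate 48 h, interpolate endpoints linearly. GI50 is the concentration that inhibits growth by half.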 Activity calls are given as the source filed them. Cut-off read from the data, not from the text of the source: active = GI50 up to about 1.1 µM and inactive = higher.

Key:
Experiment in all cases: DTP human tumour cell line panel, 48 h
[1] = test system: 786-0
[2] = test system: A498
[3] = test system: A549
[4] = test system: ACHN
[5] = test system: BT-549
[6] = test system: CAKI-1
[7] = test system: CCRF-CEM
[8] = test system: COLO 205
[9] = test system: DU-145
[10] = test system: EKVX
[11] = test system: HCC 2998
[12] = test system: HCT-116
[13] = test system: HCT-15
[14] = test system: HL-60
[15] = test system: HOP-62
[16] = test system: HOP-92
[17] = test system: HT-29
[18] = test system: Hs-578T
[19] = test system: IGROV-1
[20] = test system: K562
[21] = test system: KM12
[22] = test system: LOX IMVI
[23] = test system: M14
[24] = test system: MCF7
[25] = test system: MDA-MB-231
[26] = test system: MDA-MB-435
[27] = test system: MDA-N
[28] = test system: MOLT-4
[29] = test system: NCI-H226
[30] = test system: NCI-H23
[31] = test system: NCI-H460
[32] = test system: NCI-H522
[33] = test system: NCI/ADR-RES
[34] = test system: OVCAR-3
[35] = test system: OVCAR-4
[36] = test system: OVCAR-5
[37] = test system: OVCAR-8
[38] = test system: PC-3
[39] = test system: RPMI-8226
[40] = test system: RXF 393
[41] = test system: SF-268
[42] = test system: SF-295
[43] = test system: SF-539
[44] = test system: SK-MEL-2
[45] = test system: SK-MEL-5
[46] = test system: SK-OV-3
[47] = test system: SN12C
[48] = test system: SNB-19
[49] = test system: SNB-75
[50] = test system: SW-620
[51] = test system: T47D
[52] = test system: TK-10
[53] = test system: U-251
[54] = test system: UACC-257
[55] = test system: UACC-62
[56] = test system: UO-31
[57] = test system: Malme-3M
[58] = test system: SK-MEL-28

Cc1nc(C)c(C(=O)NNC(=O)c2ccccc2)cc1C(=O)NNC(=O)c1ccccc1
GI50 [1]: > 100 µM (inactive)
GI50 [2]: > 100 µM (inactive)
GI50 [3]: > 100 µM (inactive)
GI50 [4]: > 100 µM (inactive)
GI50 [5]: > 100 µM (inactive)
GI50 [6]: > 100 µM (inactive)
GI50 [7]: > 100 µM (inactive)
GI50 [8]: > 100 µM (inactive)
GI50 [9]: > 100 µM (inactive)
GI50 [10]: > 10 µM (inactive)
GI50 [11]: > 100 µM (inactive)
GI50 [12]: > 100 µM (inactive)
GI50 [13]: > 100 µM
GI50 [14]: > 100 µM (inactive)
GI50 [15]: > 100 µM (inactive)
GI50 [16]: > 100 µM (inactive)
GI50 [17]: > 100 µM (inactive)
GI50 [18]: > 100 µM (inactive)
GI50 [19]: > 10 µM (inactive)
GI50 [20]: > 100 µM (inactive)
GI50 [21]: > 10 µM (inactive)
GI50 [22]: > 100 µM (inactive)
GI50 [23]: > 100 µM (inactive)
GI50 [24]: > 100 µM (inactive)
GI50 [25]: > 100 µM (inactive)
GI50 [26]: > 100 µM (inactive)
GI50 [27]: > 100 µM (inactive)
GI50 [28]: > 100 µM (inactive)
GI50 [29]: > 100 µM (inactive)
GI50 [30]: > 100 µM (inactive)
GI50 [31]: > 100 µM (inactive)
GI50 [32]: > 100 µM (inactive)
GI50 [33]: > 100 µM (inactive)
GI50 [34]: > 100 µM (inactive)
GI50 [35]: > 100 µM (inactive)
GI50 [36]: > 100 µM (inactive)
GI50 [37]: > 100 µM (inactive)
GI50 [38]: > 100 µM (inactive)
GI50 [39]: > 100 µM (inactive)
GI50 [40]: > 100 µM (inactive)
GI50 [41]: > 100 µM (inactive)
GI50 [42]: > 100 µM (inactive)
GI50 [43]: > 100 µM (inactive)
GI50 [44]: > 100 µM (inactive)
GI50 [45]: > 100 µM (inactive)
GI50 [46]: > 100 µM (inactive)
GI50 [47]: > 100 µM (inactive)
GI50 [48]: > 100 µM (inactive)
GI50 [49]: > 10 µM (inactive)
GI50 [50]: > 100 µM (inactive)
GI50 [51]: > 100 µM (inactive)
GI50 [52]: > 100 µM (inactive)
GI50 [53]: > 100 µM (inactive)
GI50 [54]: > 100 µM (inactive)
GI50 [55]: > 100 µM (inactive)
GI50 [56]: > 100 µM (inactive)

CCOC(=O)C1(C/C=C\CBr)CCCCCCCCCCC1=O (configuration not stated)
GI50 [1]: 6.34 µM (inactive)
GI50 [2]: 13.9 µM (inactive)
GI50 [3]: 18 µM (inactive)
GI50 [4]: 15.6 µM (inactive)
GI50 [5]: 15.3 µM (inactive)
GI50 [6]: 13.9 µM (inactive)
GI50 [7]: 5.69 µM (inactive)
GI50 [8]: 17.5 µM (inactive)
GI50 [9]: 17.1 µM (inactive)
GI50 [10]: 14.9 µM (inactive)
GI50 [11]: 16 µM (inactive)
GI50 [12]: 17 µM (inactive)
GI50 [13]: 16.7 µM
GI50 [15]: 18.2 µM (inactive)
GI50 [17]: 4.38 µM (inactive)
GI50 [18]: 20 µM (inactive)
GI50 [19]: 2.94 µM (inactive)
GI50 [20]: 3.95 µM (inactive)
GI50 [21]: 13.2 µM (inactive)
GI50 [22]: 0.428 µM (active)
GI50 [23]: 15.7 µM (inactive)
GI50 [24]: 12.9 µM (inactive)
GI50 [25]: 3.36 µM (inactive)
GI50 [26]: 12 µM (inactive)
GI50 [27]: 11.9 µM (inactive)
GI50 [28]: 3.56 µM (inactive)
GI50 [57]: 8.22 µM (inactive)
GI50 [29]: 2.88 µM (inactive)
GI50 [30]: 11.9 µM (inactive)
GI50 [31]: 15.5 µM (inactive)
GI50 [32]: 0.497 µM (active)
GI50 [33]: 16.7 µM (inactive)
GI50 [34]: 2.09 µM (inactive)
GI50 [35]: 10.6 µM (inactive)
GI50 [36]: 16.2 µM (inactive)
GI50 [37]: 14.5 µM (inactive)
GI50 [38]: 10.4 µM (inactive)
GI50 [39]: 2.81 µM (inactive)
GI50 [40]: 11.2 µM (inactive)
GI50 [41]: 11 µM (inactive)
GI50 [42]: 16.9 µM (inactive)
GI50 [43]: 3.43 µM (inactive)
GI50 [58]: 15.7 µM (inactive)
GI50 [44]: 15.3 µM (inactive)
GI50 [45]: 12.8 µM (inactive)
GI50 [46]: 16.8 µM (inactive)
GI50 [47]: 12.6 µM (inactive)
GI50 [48]: 14.3 µM (inactive)
GI50 [49]: 12.4 µM (inactive)
GI50 [50]: 13.5 µM (inactive)
GI50 [51]: 12.1 µM (inactive)
GI50 [52]: 8.69 µM (inactive)
GI50 [53]: 7.01 µM (inactive)
GI50 [54]: 15.2 µM (inactive)
GI50 [55]: 11.5 µM (inactive)
GI50 [56]: 2.9 µM (inactive)
